In the NIST ThermoML archive (doi:10.1016/j.tca.2017.12.013):
Numbers after ± are expanded uncertainties.

Test: molar heat capacity at constant pressure
Conditions: 101.33 kPa, Crystal 2, DSC

[Ag+].[Ag+].[S-2] [silver sulfide]
Conditions	molar heat capacity at constant pressure [J/K/mol]
464.57 K	90.35 ± 3.6
465.57 K	90.28 ± 3.6
466.57 K	90.21 ± 3.6
467.57 K	90.13 ± 3.6
468.57 K	90.06 ± 3.6
469.57 K	89.98 ± 3.6
470.57 K	89.9 ± 3.6
471.57 K	89.82 ± 3.6
472.57 K	89.75 ± 3.5
473.57 K	89.67 ± 3.5
474.57 K	89.59 ± 3.5
475.57 K	89.51 ± 3.5
476.57 K	89.43 ± 3.5
477.57 K	89.35 ± 3.5
478.57 K	89.28 ± 3.5
479.57 K	89.2 ± 3.5
480.57 K	89.12 ± 3.5
481.57 K	89.05 ± 3.5
482.57 K	88.97 ± 3.5
483.57 K	88.9 ± 3.5
484.57 K	88.83 ± 3.5
485.57 K	88.76 ± 3.5
486.57 K	88.69 ± 3.5
487.57 K	88.62 ± 3.5
488.57 K	88.55 ± 3.5
489.57 K	88.48 ± 3.5
490.57 K	88.42 ± 3.5
491.57 K	88.35 ± 3.5
492.57 K	88.29 ± 3.5
493.57 K	88.23 ± 3.5
494.57 K	88.17 ± 3.5
495.57 K	88.11 ± 3.5
496.57 K	88.06 ± 3.5
497.57 K	88 ± 3.5
498.57 K	87.95 ± 3.5
499.57 K	87.9 ± 3.5
500.57 K	87.85 ± 3.5
501.57 K	87.8 ± 3.5
502.57 K	87.76 ± 3.5
503.57 K	87.71 ± 3.5
504.57 K	87.67 ± 3.5
505.57 K	87.62 ± 3.5
506.57 K	87.58 ± 3.5
507.57 K	87.54 ± 3.5
508.57 K	87.54 ± 3.5
509.57 K	87.54 ± 3.5
510.57 K	87.54 ± 3.5
511.57 K	87.57 ± 3.5
512.57 K	87.59 ± 3.5
513.57 K	87.61 ± 3.5
514.57 K	87.61 ± 3.5
515.57 K	87.61 ± 3.5
516.57 K	87.62 ± 3.5
517.57 K	87.62 ± 3.5
518.57 K	87.62 ± 3.5
519.57 K	87.64 ± 3.5
520.57 K	87.64 ± 3.5
521.82 K	87.58 ± 3.5
522.82 K	87.56 ± 3.5
523.82 K	87.54 ± 3.5
524.82 K	87.52 ± 3.5
525.82 K	87.5 ± 3.5
526.82 K	87.48 ± 3.5
527.82 K	87.46 ± 3.5
528.82 K	87.45 ± 3.5
529.82 K	87.43 ± 3.5
530.82 K	87.42 ± 3.5
531.82 K	87.4 ± 3.5
532.82 K	87.39 ± 3.5
533.82 K	87.38 ± 3.5
534.82 K	87.37 ± 3.5
535.82 K	87.36 ± 3.5
536.82 K	87.35 ± 3.5
537.82 K	87.34 ± 3.5
538.82 K	87.33 ± 3.5
539.82 K	87.32 ± 3.5
540.82 K	87.31 ± 3.5
541.82 K	87.3 ± 3.5
542.82 K	87.29 ± 3.5
543.82 K	87.28 ± 3.5
544.82 K	87.27 ± 3.5
545.82 K	87.26 ± 3.5
546.82 K	87.26 ± 3.5
547.82 K	87.25 ± 3.5
548.82 K	87.24 ± 3.5
549.82 K	87.23 ± 3.5
550.82 K	87.22 ± 3.5
551.82 K	87.22 ± 3.5
552.82 K	87.21 ± 3.5
553.82 K	87.2 ± 3.5
554.82 K	87.19 ± 3.5
555.82 K	87.18 ± 3.5
556.82 K	87.17 ± 3.5
557.82 K	87.17 ± 3.5
558.82 K	87.16 ± 3.5
559.82 K	87.15 ± 3.5
560.82 K	87.14 ± 3.5
561.82 K	87.13 ± 3.5
562.82 K	87.12 ± 3.5
563.82 K	87.11 ± 3.5
564.82 K	87.1 ± 3.5
565.82 K	87.09 ± 3.5
566.82 K	87.07 ± 3.5
567.82 K	87.06 ± 3.5
568.82 K	87.05 ± 3.5
569.82 K	87.04 ± 3.5
570.82 K	87.02 ± 3.5
571.82 K	87.01 ± 3.5
572.82 K	87 ± 3.5
573.82 K	86.98 ± 3.5
574.82 K	86.97 ± 3.5
575.82 K	86.95 ± 3.5
576.82 K	86.94 ± 3.5
577.82 K	86.92 ± 3.5
578.82 K	86.91 ± 3.5
579.82 K	86.89 ± 3.5
580.82 K	86.87 ± 3.5
581.82 K	86.85 ± 3.5
582.82 K	86.83 ± 3.5
583.82 K	86.82 ± 3.5
584.82 K	86.8 ± 3.5
585.82 K	86.78 ± 3.5
586.82 K	86.76 ± 3.5
587.82 K	86.74 ± 3.5
588.82 K	86.72 ± 3.5
589.82 K	86.7 ± 3.5
590.82 K	86.67 ± 3.5
591.82 K	86.65 ± 3.5
592.82 K	86.63 ± 3.5
593.82 K	86.61 ± 3.5
594.82 K	86.61 ± 3.5
595.82 K	86.63 ± 3.5
596.82 K	86.62 ± 3.5
597.82 K	86.62 ± 3.5
598.82 K	86.6 ± 3.5
599.82 K	86.6 ± 3.5
600.82 K	86.58 ± 3.5
601.82 K	86.55 ± 3.5
602.82 K	86.53 ± 3.5
603.82 K	86.5 ± 3.5
604.82 K	86.48 ± 3.5
605.82 K	86.45 ± 3.5
606.82 K	86.43 ± 3.5
607.82 K	86.4 ± 3.5
608.82 K	86.38 ± 3.5
609.82 K	86.35 ± 3.5
610.82 K	86.33 ± 3.5
611.82 K	86.3 ± 3.5
612.82 K	86.28 ± 3.4
613.82 K	86.25 ± 3.4
614.82 K	86.23 ± 3.4
615.82 K	86.2 ± 3.4
616.82 K	86.18 ± 3.4
